Experimental findings from patent US20250368632A1, “CR[…] AND CONJUGATES THEREOF” (Universitat Bielefeld, priority 2021, published 2025) are described below.

pIC50: −log10 of the molar value. Where only a bound is given, the exact number is not on record here.

One assay deals with KB-3-1 cells. Put plainly: Resazurin cell viability (cytotoxicity) assay, 72 h incubation, KB-3-1 cells. It counts as cell-based. Particulars: resazurin fluorescence, drug concentration at which vitality is 50%, read-out: IC50 values of cryptophycin compounds, KB-3-1 cells. The procedure: (§1) The KB-3-1 and KB—V1 cells were cultivated as a monolayer in DMEM (Dulbecco's modified Eagle medium) with glucose (4.5 g L^−1), L-glutamine, sodium pyruvate and phenol red, supplemented with 10% (KB-3-1) and 15% (KB—V1) fetal bovine serum. 50 μg mL^−1 gentamycin is added for the KB—V1 cells. The cells were maintained at 37° C. and 5.3% CO2/humidified air. KB—V1 cells were continuously selected during cultivation with vinblastine sulfate (150 nM). On the day before the test, the cells (70% confluence) were detached with trypsin/ethylenediaminetetraacetic acid (EDTA) solution (0.05%/0.02% in DPBS) and plated in sterile 96-well plates in a density of 10,000 cells in 100 μL medium per well. The dilution series of the compounds were prepared from stock solutions in DMSO of concentrations of […]. The stock solutions were diluted with culture medium (15% FBS [KB—V1]; 10% FBS [KB-3-1]) at least 50 times. Some culture medium was added to the wells to adjust the volume of the wells to the wanted dilution factor. The dilution prepared from stock solution was added to the wells. Each concentration was tested in six replicates. Dilution series were prepared by pipetting liquid from well to well. The control contained the same concentration of DMSO as the first dilution. After incubation for 72 h at 37° C. and 5.3% CO2/humidified air, 30 μL of an aqueous resazurin solution (175 μM) was added to each well. The cells were incubated at the same conditions for 6 h. Subsequently, the fluorescence was measured. The excitation was effected at a wavelength of 530 nm, whereas the emission was recorded at a wavelength of 588 nm. The IC50 values were calculated as a sigmoidal dose response curve using GraphPad Prism 4.03. The IC50 values equal the drug concentrations, at which vitality is 50%.

A further assay deals with KB-V1 cells. The assay can be described thus: Resazurin cell viability (cytotoxicity) assay, 72 h incubation, KB-V1 cells (selected with vinblastine). It counts as cell-based. As to conditions: resazurin fluorescence, drug concentration at which vitality is 50%, read-out: IC50 values of cryptophycin compounds, KB-V1 cells. The procedure:
as §1

For “Cryptophycin [Compound H8, Cryptophycin [uD-Ser]]”, the figures for the negative logarithm of the IC50 (pIC50) in the assay with KB-3-1 cells and with KB-V1 cells were 9.92 and 5.96, respectively.

In the case of “Cryptophycin-[uD-Dab(Alloc)] [Compound C5]”, the pIC50 in the assay on KB-3-1 cells is 9.66; in the assay on KB-V1 cells it was 6.40.

As to Cryptophycin-[uD-Dab-Me2] [Compound C7], the results for the negative logarithm of the IC50 (pIC50) in the assay with KB-3-1 cells and in the assay with KB-V1 cells were 10.42 and 6.68, respectively.

Regarding Cryptophycin-[uD-Dab] [Compound C6], the pIC50 in the assay on KB-3-1 cells is 9.00; in the assay with KB-V1 cells, below 4.30.

“Cryptophycin-[uD-HSe(AII)] [Compound Y7]”: the pIC50 with KB-3-1 cells was 10.74; in the assay with KB-V1 cells, 7.03.

For the substance Cryptophycin-[uD-HSe] [Compound Y8], the negative logarithm of the IC50 (pIC50) with KB-3-1 cells was 9.10; in the assay with KB-V1 cells, below 6.30.

In the case of “Cryptophycin-[uD-Lys(Alloc)] [Compound G5]”, the pIC50 with KB-3-1 cells is 5.38; in the assay with KB-V1 cells it was below 6.30.

Take Cryptophycin-[uD-Lys] [Compound G6]: the negative-log IC50 (pIC50) with KB-3-1 cells is 4.22; in the assay with KB-V1 cells, below 6.30.

For Cryptophycin-[uD-Met] [Compound T7], the values for the pIC50 in the assay on KB-3-1 cells and in the assay with KB-V1 cells were 10.70 and 7.31, respectively.

As for “Cryptophycin-[uD-Ser(AII)] [Compound H7]”, the pIC50 in the assay with KB-3-1 cells is 10.96; in the assay with KB-V1 cells it was 7.54.

Regarding “Cryptophycin-[uD-Thr(Allyl)] [Compound Z6]”, the pIC50 with KB-3-1 cells was 8.82; in the assay with KB-V1 cells, below 6.00.

On to Cryptophycin-[uD-Thr] [Compound Z7], for which the pIC50 with KB-3-1 cells is 10.59; with KB-V1 cells, 6.52.

Take “Cryptophycin-uD[Dab(Alloc,Me)] [Compound B10]”: the pIC50 is 10.68 with KB-3-1 cells and 7.05 in the assay with KB-V1 cells.

For the substance “Cryptophycin-uD[Dap(AII, Me)] [Compound C10]”, the values for the pIC50 with KB-3-1 cells and with KB-V1 cells were 10.68 and 9.06, respectively.

As for “Cryptophycin-uD[Dap(Alloc,Me)] [Compound P10]”, the pIC50 with KB-3-1 cells was 10.35; with KB-V1 cells it was 6.05.

Take Cryptophycin-uD[Dap(Me)] [Compound P11]: the pIC50 in the assay on KB-3-1 cells was 11.06; in the assay on KB-V1 cells it was 7.68.
